Assay results from EP0359821A1, “METHOD OF STERILIZING PLANT ANTHERS” (priority 1988, dated 1989).
Like-named read-outs stand apart in the source and are kept apart here.

Experiments:
[1] = tested on: Winterweizens Sorte Mironovskaya 808; test: Field trial of gametocidal activity (anther sterilisation), winter wheat; type: in vivo, Weizen; settings: 2% aqueous emulsion, 20 kg/ha; for response vs control in vivo at 20000 g/ha: control = 100, read-out: Prozentsatz des Ansetzens bei freier Bestäubung
[2] = tested on: Sommerweizen Sorte Moskovskaya 35; test: Field trial of gametocidal activity, spring wheat; type: in vivo, Weizen; settings: 1% aqueous emulsion; for Anzahl von Körnern der Ähre bei freier Bestäubung / Anzahl von Körnern der Ähre im Isolator / percent sterility at 10000 g/ha: V. period; for percent sterility at 10000 g/ha: read-out: Prozentsatz der Sterilität
[3] = tested on: Diploider Roggen Sorte Kharkovskaya 55; test: Field trial of gametocidal activity, diploid rye Kharkovskaya 55; settings: 1% aqueous emulsion, 6 kg/ha; for Anzahl von Körnern der Ähre bei freier Bestäubung / Anzahl von Körnern der Ähre im Isolator / Prozentsatz der Sterilität: V. and VI. periods; for Prozentsatz des Ansetzens bei freier Bestäubung: control = 100
[4] = in vivo; settings: mouse
[5] = tested on: Hirse Sorte K-9693 Kormovoe 1; test: Field trial of gametocidal activity, millet K-9693 Kormovoe 1; settings: 1% aqueous emulsion, 10 kg/ha; for Anzahl von Körnern der Rispe bei freier Bestäubung / Anzahl von Körnern der Rispe im Isolator / Prozentsatz der Sterilität: V. or VI. period; for Prozentsatz des Ansetzens bei freier Bestäubung: control = 100
[6] = tested on: Diploider Roggen Sorte Chulpan; test: Field trial of gametocidal activity, diploid rye Chulpan; type: in vivo; settings: single compounds, 1% aqueous emulsion, 10 kg/ha; for percent sterility at 10000 g/ha: read-out: Prozentsatz der Sterilität
Source text: Bei Weizen und Tritikale werden Einzelisolatoren verwendet.
Pflanzen von diploidem Roggen Sorte Chulpan werden in der V. oder VI.
Der Verbrauch an Sterilisationsmitteln beträgt 10 kg/ha.

[7] = tested on: Diploider Roggen Sorte Gibrid 340/65; test: Field trial of gametocidal activity, diploid rye Gibrid 340/65; settings: Gibrid 340/65 (text: 312/65), 1% aqueous emulsion, 10 kg/ha; for Anzahl von Körnern der Ähre bei freier Bestäubung / Anzahl von Körnern der Ähre im Isolator / Prozentsatz der Sterilität: V. and VI. periods; for Prozentsatz des Ansetzens bei freier Bestäubung: control = 100
[8] = tested on: Hirse Sorte Mironovskoe 94; test: Field trial of gametocidal activity, millet Mironovskoe 94; type: in vivo; settings: 1% aqueous emulsion, 10 kg/ha
[9] = tested on: Tetraploider Roggen Sorte Belta; test: Field trial of gametocidal activity, tetraploid rye Belta; type: in vivo; settings: 1% aqueous emulsion, 10 kg/ha; for response vs control in vivo at 10000 g/ha: control = 100, read-out: Prozentsatz des Ansetzens bei freier Bestäubung
[10] = tested on: Sonnenblume Sorte Peredovik; test: Field trial of pollen sterilisation, sunflower Peredovik; type: in vivo; settings: 0,2% aqueous emulsion, 1,2 kg/ke (so in the source)
Source text: Pflanzen der Sonnenblume Sorte Peredovik werden in der V. oder VI.
Der Verbrauch an Sterilisationsmittel beträgt 1,2 kg/ke.

[11] = tested on: Sonnenblume Linie VK 119; test: Field trial of pollen sterilisation, sunflower line VK 119; settings: 0,2% aqueous emulsion, 1,2 kg/ha
[12] = tested on: Roggen Sorte Voskhod 2; test: Field trial of gametocidal activity, diploid rye Voskhod 2; type: in vivo; settings: 1% aqueous emulsion, 8 kg/ha
[13] = V. or VI. period of organogenesis
[14] = V. or VI. period of organogenesis, read-out: Prozentsatz der Sterilität
[15] = control = 100, read-out: Prozentsatz des Ansetzens bei freier Bestäubung
[16] = read-out: Prozentsatz des Ansetzens bei freier Bestäubung, Chulpan, control = 100
[17] = V. or VI. period, read-out: Prozentsatz der Sterilität
[18] = V. or VI. period, listed as Beispiel 7I
[19] = Chulpan, V. or VI. period, listed as Beispiel 56

With `OCC(O)COc1ccc(Cl)cc1Cl` (centres unmarked) [Beispiel 6, 3-(2',4'-Dichlorphenoxy)-propandiol-I,2] the “Anzahl von Körnern der Ähre bei freier Bestäubung” value [1, 13] was 35,0, the “Anzahl von Körnern der Ähre im Isolator” value [1, 13] was 0,8 and the percent sterility at 20000 g/ha [1, 14] was 97.9%. For the same compound, the response vs control in vivo at 20000 g/ha [1] was 86.4%, the “Anzahl von Körnern der Ähre bei freier Bestäubung” value ([2]; 10 kg/ha) was 26,0 and the “Anzahl von Körnern der Ähre im Isolator” value ([2]; 10 kg/ha) was 0,1. The percent sterility at 10000 g/ha ([2]; 10 kg/ha) was 99.9%, the response vs control in vivo at 10000 g/ha ([2]; 10 kg/ha, control = 100, read-out: Prozentsatz des Ansetzens bei freier Bestäubung) was 94.5% and the “Anzahl von Körnern der Ähre bei freier Bestäubung” value [3] was 41,6. The “Anzahl von Körnern der Ähre im Isolator” value [3] was 0,0, the “Prozentsatz der Sterilität” value [3] was 100% and the “Prozentsatz des Ansetzens bei freier Bestäubung” value [3] was 90,2%.

In the case of `OCC(O)CSc1cccc(Cl)c1` (centres unmarked) [Beispiel 8, 3-(3'-Chlorphenylthio)-propandiol-1,2], the LD50 ([4]; LD50, weisse Mäuse) is reported as 400 mg/kg, the “Anzahl von Körnern der Ähre bei freier Bestäubung” value [1, 13] is reported as 32,7 and the “Anzahl von Körnern der Ähre im Isolator” value [1, 13] is reported as 2,6. For the same compound, the response vs control in vivo at 20000 g/ha [1] was 80.7%, the “Anzahl von Körnern der Ähre bei freier Bestäubung” value ([2]; 10 kg/ha) was 24,6 and the “Anzahl von Körnern der Ähre im Isolator” value ([2]; 10 kg/ha) was 0,8. The percent sterility at 10000 g/ha ([2]; 10 kg/ha) was 99.7%, the response vs control in vivo [2, 15] was 89.5% and the “Anzahl von Körnern der Rispe bei freier Bestäubung” value [5] was 100,8. The “Anzahl von Körnern der Rispe im Isolator” value [5] was 0,0, the “Prozentsatz der Sterilität” value [5] was 100% and the “Prozentsatz des Ansetzens bei freier Bestäubung” value [5] was 68,7%. The “Anzahl von Körnern der Ähre bei freier Bestäubung” value ([6]; Chulpan, V. or VI. period) was 52,1, the “Anzahl von Körnern der Ähre im Isolator” value ([6]; Chulpan, V. or VI. period) was 0,0 and the percent sterility at 10000 g/ha ([6]; Chulpan, V. or VI. period) was 100%. The response vs control in vivo at 10000 g/ha [6, 16] was 91.9%.

For `O=[N+]([O-])c1ccc(OCC(O)CO)cc1` (centres unmarked) [Beispiel 9, 3-(4'-Nitrophenoxy)-propandiol-I,2], the LD50 ([4]; LD50, weisse Mäuse) was 100 to 600 mg/kg, the “Anzahl von Körnern der Ähre bei freier Bestäubung” value [1, 13] was 34,0 and the “Anzahl von Körnern der Ähre im Isolator” value [1, 13] was 4,8. For the same compound, the percent sterility at 20000 g/ha [1, 14] was 85.2%, the response vs control in vivo at 20000 g/ha [1] was 83.9% and the “Anzahl von Körnern der Ähre bei freier Bestäubung” value [7] was 45,0. For the same compound, the “Anzahl von Körnern der Ähre im Isolator” value [7] was 0,0, the “Prozentsatz der Sterilität” value [7] was 100% and the “Prozentsatz des Ansetzens bei freier Bestäubung” value [7] was 84,1%. For the same compound, the “Anzahl von Körnern der Rispe bei freier Bestäubung” value ([8]; V. or VI. period) was 311,6, the “Anzahl von Körnern der Rispe im Isolator” value ([8]; V. or VI. period) was 0,0 and the percent pollen sterility at 10000 g/ha [8, 17] was 100%. The response vs control in vivo at 10000 g/ha [8, 15] was 82.1%, the “Anzahl von Körnern der Ähre bei freier Bestäubung” value ([9]; V. or VI. period) was 39,7 and the “Anzahl von Körnern der Ähre im Isolator” value ([9]; V. or VI. period) was 0,0. For the same compound, the response vs control in vivo at 10000 g/ha [9] was 89.6%, the “Anzahl von Körnern der Ähre bei freier Bestäubung” value ([6]; Chulpan, V. or VI. period) was 51,7 and the “Anzahl von Körnern der Ähre im Isolator” value ([6]; Chulpan, V. or VI. period) was 0,7. It also gave a percent sterility at 10000 g/ha ([6]; Chulpan, V. or VI. period) of 98.7% and a response vs control in vivo at 10000 g/ha [6, 16] of 91.2%.

In the case of `Nc1ccc(C(=O)O)cc1` [Beispiel 38, Äthanolaminsalz der p-Aminobenzoesäure], the LD50 ([4]; LD50, weisse Mäuse) is reported as 2850 mg/kg, the “Anzahl von Körnern der Ähre bei freier Bestäubung” value [7] is reported as 52,8 and the “Anzahl von Körnern der Ähre im Isolator” value [7] is reported as 3,2. The “Prozentsatz der Sterilität” value [7] was 93,4% and the “Prozentsatz des Ansetzens bei freier Bestäubung” value [7] was 97,8%.

With `OCCCl` [Beispiel 45, 2-Chloräthanol] the LD50 [4] was 580 mg/kg, the “Anzahl von Körnern der Rispe bei freier Bestäubung” value [5] was 130,5 and the “Anzahl von Körnern der Rispe im Isolator” value [5] was 0,0. For the same compound, the “Prozentsatz der Sterilität” value [5] was 100%, the “Prozentsatz des Ansetzens bei freier Bestäubung” value [5] was 89,0% and the Pollensterilität in % [10] was 100%. For the same compound, the “Ansetzen von Achänen bei freier Bestäubung in %” value ([10]; V. or VI. period) was 83,9%, the “Ansetzen von Achänen im Isolator bei der Bestäubung mit dem Pollengemisch in %” value ([10]; V. or VI. period) was 0,0% and the “Ansetzen von Achänen bei freier Bestäubung in %” value [11] was 83,5%. For the same compound, the “Ansetzen von Achänen im Isolator bei der Bestäubung mit dem Pollengemisch in %” value [11] was 0,0%, the Pollensterilität in % [11] was 100% and the “Anzahl von Körnern der Ähre bei freier Bestäubung” value ([9]; V. or VI. period) was 42,2. For the same compound, the “Anzahl von Körnern der Ähre im Isolator” value ([9]; V. or VI. period) was 0,0, the response vs control in vivo at 10000 g/ha [9] was 95.3% and the “Anzahl von Körnern der Ähre bei freier Bestäubung” value ([6]; Chulpan, V. or VI. period) was 80,2. For the same compound, the “Anzahl von Körnern der Ähre im Isolator” value ([6]; Chulpan, V. or VI. period) was 2,2, the pest or weed control at 10000 g/ha ([6]; read-out: Prozentsatz der Sterilität, Chulpan, V. or VI. period) was 95.8% and the response vs control in vivo at 10000 g/ha [6, 16] was 88.5%.

In the case of `Nc1ccc(O)c(C(=O)O)c1` [Beispiel 51, Äthanolaminsalz der 5-Aminosalizylsäure], the LD50 ([4]; LD50, weisse Mäuse) is reported as 2400 mg/kg, the “Anzahl von Körnern der Ähre im Isolator” value ([9]; V. or VI. period) is reported as “I,I” and the percent sterility at 10000 g/ha [9, 17] is reported as 97.3%. The response vs control in vivo at 10000 g/ha [9] was 99.5%, the “Anzahl von Körnern der Ähre bei freier Bestäubung” value ([6]; Chulpan, V. or VI. period) was 55,6 and the “Anzahl von Körnern der Ähre im Isolator” value ([6]; Chulpan, V. or VI. period) was 2,1. For the same compound, the percent sterility at 10000 g/ha ([6]; Chulpan, V. or VI. period) was 96% and the response vs control in vivo at 10000 g/ha [6, 16] was 92.8%.

With `CCC(CO)(CO)CBr` [Beispiel 53, monobromsubstituiertem Etriol] the “Anzahl von Körnern der Ähre bei freier Bestäubung” value ([6]; Chulpan, V. or VI. period) was 55,8, the “Anzahl von Körnern der Ähre im Isolator” value ([6]; Chulpan, V. or VI. period) was 4,8 and the percent sterility at 10000 g/ha ([6]; Chulpan, V. or VI. period) was 91.8%. It also gave a response vs control in vivo at 10000 g/ha ([6]; Chulpan, control = 100, read-out: Prozentsatz des Ansetzens bei freier Bestäubung) of 98.4%.

For `O=C(COc1cc(F)c(Cl)cc1Cl)OCCCl` [Beispiel I0, β -Chloräthylester der 2,4-Dichlor-5-fluornhenoxyessig-säure], the LD50 ([4]; LD50, weisse Mäuse) was 500 mg/kg, the “Anzahl von Körnern der Ähre im Isolator” value [1, 13] was 0,6 and the response vs control in vivo at 20000 g/ha [1] was 74.3%.

For `O=C(O)c1ccccc1F` [Beispiel I4, Monoäthanolaminsalz der Orthofluorbenzoesäure], the LD50 ([4]; LD50, weisse Mäuse) was 700 mg/kg, the “Anzahl von Körnern der Ähre bei freier Bestäubung” value [1, 13] was 36,2 and the “Anzahl von Körnern der Ähre im Isolator” value [1, 13] was 5,3. The pest or weed control at 20000 g/ha [1, 14] was 85.9%, the response vs control in vivo at 20000 g/ha [1] was 89.3% and the “Anzahl von Körnern der Ähre bei freier Bestäubung” value [9, 18] was 43,5. The “Anzahl von Körnern der Ähre im Isolator” value [9, 18] was 0,0, the “Prozentsatz des Ansetzens bei freier Bestäubung” value ([9]; control = 100, listed as Beispiel 7I) was 98,2% and the “Anzahl von Körnern der Ähre bei freier Bestäubung” value [6, 19] was 56,2. The “Anzahl von Körnern der Ähre im Isolator” value [6, 19] was 0,1 and the “Prozentsatz des Ansetzens bei freier Bestäubung” value ([6]; Chulpan, control = 100, listed as Beispiel 56) was 99,1%.

For `O=C(COc1ccc(F)cc1)OCCCl` [Beispiel I, β-Chloräthylester der 4-Fluorphenoxyessigsäure], the LD50 ([4]; LD50, weisse Mäuse) was 400 mg/kg, the “Anzahl von Körnern der Ähre bei freier Bestäubung” value [1, 13] was 30,4 and the percent sterility at 20000 g/ha [1, 14] was 99.8%. The “Anzahl von Körnern der Ähre bei freier Bestäubung” value ([2]; 10 kg/ha) was 23,8, the “Anzahl von Körnern der Ähre im Isolator” value ([2]; 10 kg/ha) was 0,4 and the percent sterility at 10000 g/ha ([2]; 10 kg/ha) was 98.5%. The response vs control in vivo [2, 15] was 86.5%, the “Anzahl von Körnern der Ähre bei freier Bestäubung” value [7] was 45,6 and the “Anzahl von Körnern der Ähre im Isolator” value [7] was 0,0. The “Prozentsatz der Sterilität” value [7] was 100%, the “Prozentsatz des Ansetzens bei freier Bestäubung” value [7] was 84,4% and the “Anzahl von Körnern der Ähre bei freier Bestäubung” value [3] was 42,7. For the same compound, the “Anzahl von Körnern der Ähre im Isolator” value [3] was 0,0, the “Prozentsatz der Sterilität” value [3] was 100% and the “Prozentsatz des Ansetzens bei freier Bestäubung” value [3] was 94,7%.

With “Äthanolaminsalz der Tetraphthalsäure [Beispiel 34]” the “Anzahl von Körnern der Ähre bei freier Bestäubung” value ([12]; V. or VI. period) was 54,0, the “Anzahl von Körnern der Ähre im Isolator” value ([12]; V. or VI. period) was 1,2 and the “Prozentsatz der Sterilität” value ([12]; V. or VI. period) was 97,6%. For the same compound, the “Prozentsatz des Ansetzens bei freier Bestäubung” value ([12]; control = 100) was 98,9%.
